Assay results taken from patent publication US9580390B2, “Indazole compounds as kinase inhibitors and method of treating cancer with same” (University Health Network, priority 2011, dated 2017).
Read-outs that look alike come from different tables or passages of the source.

Assays:
[1] = tested on: colon cancer cells (HCT116); test: Cancer cell line growth inhibition (SRB assay); assay type: cell-based; conditions: Homo sapiens, HCT-116, read-out: Cancer Cell Line GI50 Range HCT116
human PLK4 = biological target: T1, human PLK4 (Homo sapiens, UniProt O00444); test: PLK4 inhibition assay (indirect ELISA); assay type: biochemical; conditions: 15 μM ATP
T1 construct: amino terminal GST fusion of residues 1-391 of human PLK4; made in house; host or cells: E. coli
T1 sequence (O00444 1-391): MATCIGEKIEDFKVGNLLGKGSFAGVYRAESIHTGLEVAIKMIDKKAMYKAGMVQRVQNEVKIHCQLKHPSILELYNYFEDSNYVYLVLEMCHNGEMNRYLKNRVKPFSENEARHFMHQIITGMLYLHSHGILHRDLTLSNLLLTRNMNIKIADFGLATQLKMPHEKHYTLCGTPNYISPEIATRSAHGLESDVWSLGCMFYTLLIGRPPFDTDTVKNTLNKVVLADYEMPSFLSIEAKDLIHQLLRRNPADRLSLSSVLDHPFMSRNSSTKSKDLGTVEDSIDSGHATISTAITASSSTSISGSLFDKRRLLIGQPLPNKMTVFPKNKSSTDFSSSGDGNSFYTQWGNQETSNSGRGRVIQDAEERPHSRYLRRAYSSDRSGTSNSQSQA
In short: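 Dephosphorylated GST-PLK4 (residues 1-391, E. coli; 4 nM) was preincubated 15 min with compound, then reacted 30 min with 15 μM ATP in HEPES pH 7.4, MgCl2, Brij 35 on MBP-coated plates. Phospho-MBP was detected by antibody/HRP ELISA at 450 nm; IC50 from 10-point titration by 4-parameter logistic fit, or single 10 μM % inhibition.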

TICs (Colon 12) = test: Colon tumor-initiating cell growth inhibition (Alamar Blue); assay type: cell-based; conditions: 216 h, 9 days, read-out: Tumor Initiating Cell GI50 Range Colon 12
TICs (Ovarian 2393A) = test: Ovarian tumor-initiating cell growth inhibition (Alamar Blue); assay type: cell-based; conditions: 144 h; ovarian TICs, 6 days, Alamar Blue; read-out: Tumor Initiating Cell GI50 Range Ovarain 2393A
[2] = tested on: ovarian cancer cells (PA-1); test: Cancer cell line growth inhibition (SRB assay); assay type: cell-based; conditions: read-out: Cancer Cell Line GI50 Range PA-1
human TTK = biological target: T2, human TTK (Homo sapiens, UniProt P33981); test: TTK inhibition assay (indirect ELISA); assay type: biochemical; conditions: read-out: TTK IC50 Range
T2 construct: amino terminal GST fusion of full length human TTK; purchased Invitrogen
T2 sequence (P33981 1-857): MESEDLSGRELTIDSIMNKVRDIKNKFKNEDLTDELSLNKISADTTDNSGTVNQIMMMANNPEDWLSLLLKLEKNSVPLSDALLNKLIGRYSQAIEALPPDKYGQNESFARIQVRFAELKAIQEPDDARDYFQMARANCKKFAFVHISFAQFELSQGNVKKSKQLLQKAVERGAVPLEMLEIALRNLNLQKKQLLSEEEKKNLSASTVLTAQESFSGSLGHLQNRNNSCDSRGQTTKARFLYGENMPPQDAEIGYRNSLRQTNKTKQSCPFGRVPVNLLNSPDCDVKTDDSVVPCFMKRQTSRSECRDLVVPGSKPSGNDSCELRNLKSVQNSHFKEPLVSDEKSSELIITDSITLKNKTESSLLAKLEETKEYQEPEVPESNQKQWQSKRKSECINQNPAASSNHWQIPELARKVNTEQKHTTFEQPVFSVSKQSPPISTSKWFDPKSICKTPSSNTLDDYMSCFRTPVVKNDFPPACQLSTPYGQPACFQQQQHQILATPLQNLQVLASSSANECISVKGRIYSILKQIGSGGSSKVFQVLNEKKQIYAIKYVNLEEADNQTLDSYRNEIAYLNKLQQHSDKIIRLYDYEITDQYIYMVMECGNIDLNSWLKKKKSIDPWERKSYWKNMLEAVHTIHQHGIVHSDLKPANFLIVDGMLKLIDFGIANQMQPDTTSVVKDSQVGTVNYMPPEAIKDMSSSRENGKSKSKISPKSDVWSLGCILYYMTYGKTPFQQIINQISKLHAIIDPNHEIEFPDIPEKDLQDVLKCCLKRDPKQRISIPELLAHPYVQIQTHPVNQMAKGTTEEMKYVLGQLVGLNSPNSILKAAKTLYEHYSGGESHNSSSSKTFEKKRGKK

Breast cancer cells = test: Cancer cell line growth inhibition (SRB assay); assay type: cell-based; conditions: Homo sapiens; MDA-MB-468; read-out: Cancer Cell Line GI50 Range MDA-MB-468
[3] = HCT116 colon cancer cells, SRB assay
[4] = PA-1 ovarian cancer cells, SRB assay

Row | Compound | GI50 [1, 3] | IC50 (human PLK4) | GI50 (TICs (Colon 12); colon TICs, Alamar Blue) | GI50 (TICs (Ovarian 2393A)) | GI50 [2, 4] | GI50 [1] | GI50 ([2]; Homo sapiens, PA-1) | IC50 (human TTK) | GI50 (TICs (Colon 12); Colon 12 TICs) | GI50 (Breast cancer cells)
1 | O=C(Nc1ccc2[nH]nc(-c3ccc(OC4CCOCC4)cc3)c2c1)C(c1ccsc1)N1CCCC1 (centres unmarked) [Example A29, 2-(pyrrolidin-1-yl)-N-(3-(4-((tetrahydro-2H-pyran-4-yl)oxy)phenyl)-1H-indazol-5-yl)-2-(thiophen-3-yl)acetamide] | < 100 nM | < 50 nM | < 100 nM | 100 to 500 nM | – | – | – | – | – | –
2 | CN1CCC(Oc2ccc(-c3n[nH]c4ccc(C(=O)NC(c5ccsc5)C5CCCC5)cc34)cc2)CC1 (centres unmarked) [Example A110, N-(cyclopentyl(thiophen-3-yl)methyl)-3-(4-((1-methylpiperidin-4-yl)oxy)phenyl)-1H-indazol-5-carboxamide] | < 100 nM | < 50 nM | < 100 nM | 100 to 500 nM | < 100 nM | – | – | – | – | –
3 | O=CN1CCC(Oc2ccc(-c3n[nH]c4ccc(NC(=O)C(c5ccsc5)N5CCCC5)cc34)cc2)CC1 (centres unmarked) [Example A118, N-(3-(4-((1-formylpiperidin-4-yl)oxy)phenyl)-1H-indazol-5-yl)-2-(pyrrolidin-1-yl)-2-(thiophen-3-yl)acetamide] | < 100 nM | < 50 nM | 100 to 500 nM | < 100 nM | < 100 nM | – | – | – | – | –
4 | CC[C@@H](NC(=O)c1ccc2[nH]nc(-c3ccc(OC4CCN(CCOC)CC4)cc3)c2c1)c1ccccc1Cl [Example A128, (R)-N-(1-(2-chlorophenyl)propyl)-3-(4-((1-(2-methoxyethyl)piperidin-4-yl)oxy)phenyl)-1H-indazole-5-carboxamide] | < 100 nM | < 50 nM | < 100 nM | 100 to 500 nM | 100 to 500 nM | – | – | – | – | –
5 | Cc1ccccc1C(C(=O)Nc1ccc2[nH]nc(-c3ccc(OC4CCN(C)CC4)cc3)c2c1)N1CCCC1 (centres unmarked) [Example A133, N-(3-(4-((1-methylpiperidin-4-yl)oxy)phenyl)-1H-indazol-5-yl)-2-(pyrrolidin-1-yl)-2-(o-tolyl)acetamide] | < 100 nM | < 50 nM | < 100 nM | 100 to 500 nM | < 100 nM | – | – | – | – | –
6 | CN1CCC(Oc2ccc(-c3n[nH]c4ccc(C(=O)NC(c5ccccc5F)C5CC5)cc34)cc2)CC1 (centres unmarked) [Example A136, N-(cyclopropyl(2-fluorophenyl)methyl)-3-(4-((1-methylpiperidin-4-yl)oxy)phenyl)-1H-indazole-5-carboxamide] | < 100 nM | < 50 nM | > 500 nM | < 100 nM | < 100 nM | – | – | – | – | –
7 | CN1CCC(Oc2ccc(-c3n[nH]c4ccc(C(=O)N[C@H](CCO)c5ccccc5)cc34)cc2)CC1 [Example A137, (R)-N-(3-hydroxy-1-phenylpropyl)-3-(4-((1-methylpiperidin-4-yl)oxy)phenyl)-1H-indazole-5-carboxamide] | < 100 nM | < 50 nM | > 500 nM | 100 to 500 nM | 100 to 500 nM | – | – | – | – | –
8 | CN1CCC(Oc2ccc(-c3n[nH]c4ccc(NC(=O)C(c5ccccc5)C5CC5)cc34)cc2)CC1 (centres unmarked) [Example A138, 2-cyclopropyl-N-(3-(4-((1-methylpiperidin-4-yl)oxy)phenyl)-1H-indazol-5-yl)-2-phenylacetamide] | < 100 nM | < 50 nM | < 100 nM | 100 to 500 nM | < 100 nM | – | – | – | – | –
9 | CN1CCC(Oc2ccc(-c3n[nH]c4ccc(C(=O)NC(c5ccccc5Cl)C5CC5)cc34)cc2)CC1 (centres unmarked) [Example A150, N-((2-chlorophenyl)(cyclopropyl)methyl)-3-(4-((1-methylpiperidin-4-yl)oxy)phenyl)-1H-indazole-5-carboxamide] | < 100 nM | < 50 nM | < 100 nM | < 100 nM | < 100 nM | – | – | – | – | –
10 | COCCN1CCC(Oc2ccc(-c3n[nH]c4ccc(C(=O)N[C@H](c5ccsc5)C5CC5)cc34)cc2)CC1 [Example A154, (S)-N-(cyclopropyl(thiophen-3-yl)methyl)-3-(4-((1-(2-methoxyethyl)piperidin-4-yl)oxy)phenyl)-1H-indazole-5-carboxamide] | < 100 nM | < 50 nM | < 100 nM | < 100 nM | 100 to 500 nM | – | – | – | – | –
11 | CN1CCC(Oc2ccc(-c3n[nH]c4ccc(C(=O)N[C@@H](c5sccc5Cl)C5CC5)cc34)cc2)CC1 [Example A166, (R)-N-((3-chlorothiophen-2-yl)(cyclopropyl)methyl)-3-(4-((1-methylpiperidin-4-yl)oxy)phenyl)-1H-indazole-5-carboxamide] | < 100 nM | < 50 nM | < 100 nM | < 100 nM | < 100 nM | – | – | – | – | –
12 | CN1CCC(Oc2ccc(-c3n[nH]c4ccc(C(=O)N[C@H](c5sccc5Cl)C5CC5)cc34)cc2)CC1 [Example A167, (S)-N-((3-chlorothiophen-2-yl)(cyclopropyl)methyl)-3-(4-((1-methylpiperidin-4-yl)oxy)phenyl)-1H-indazole-5-carboxamide] | < 100 nM | < 50 nM | < 100 nM | < 100 nM | 100 to 500 nM | – | – | – | – | –
13 | CO[C@@H](C(=O)Nc1ccc2[nH]nc(-c3ccc(OC4CCN(C=O)CC4)cc3)c2c1)c1ccccc1 [Example A169, (R)-N-(3-(4-((1-formylpiperidin-4-yl)oxy)phenyl)-1H-indazol-5-yl)-2-methoxy-2-phenylacetamide] | 100 to 500 nM | < 50 nM | > 500 nM | > 500 nM | 100 to 500 nM | – | – | – | – | –
14 | COCCN1CCC(Oc2ccc(-c3n[nH]c4ccc(NC(=O)C(c5ccsc5)N5CCCC5)cc34)cc2)CC1 (centres unmarked) [Example A175, N-(3-(4-((1-(2-methoxyethyl)piperidin-4-yl)oxy)phenyl)-1H-indazol-5-yl)-2-(pyrrolidin-1-yl)-2-(thiophen-3-yl)acetamide] | < 100 nM | < 50 nM | 100 to 500 nM | < 100 nM | < 100 nM | – | – | – | – | –
15 | O=C(NCC1(c2ccccc2)CCOCC1)c1ccc2[nH]nc(-c3ccc(N4[C@@H]5CC[C@H]4C[C@@H](O)C5)cc3)c2c1 [Example A492, 3-(4-((1R,3R,5S)-3-hydroxy-8-azabicyclo[3.2.1]octan-8-yI)phenyl)-N-((4-phenyltetrahydro-2H-pyran-4-yl)methyl)-1H-indazole-5-carboxamide] | – | < 50 nM | – | – | – | < 100 nM | < 100 nM | < 100 nM | < 100 nM | < 100 nM
16 | O=C(NCC1(c2ccccc2)CCOCC1)c1ccc2[nH]nc(-c3ccc(N4[C@@H]5COC[C@H]4C[C@@H](O)C5)cc3)c2c1 [Example A503, 3-(4-((1R,5S,7S)-7-hydroxy-3-oxa-9-azabicyclo[3.3.1]nonan-9-yl)phenyl)-N-((4-phenyltetrahydro-2H-pyran-4-yl)methyl)-1H-indazole-5-carboxamide] | – | < 50 nM | – | – | – | < 100 nM | < 100 nM | < 100 nM | – | 100 to 500 nM
